Experimental data from the supplement of paper PMC10307832.

What was measured:
Experiment in all cases: relative viability (nuclei count vs DMSO), 5 days (fraction); higher = more cells survive
[1] = compound: CN(C)CC1=CC(=CC=C1)N=C(C2=CC=CC=C2)C3=C(NC4=C3C=CC(=C4)C(=O)N(C)C)O + Nc1ncn([C@H]2C[C@H](O)[C@@H](CO)O2)c(=O)n1 [Decitabine] (partner 2 µM)
Summary of the method: (§1)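 Medians of duplicate plates are given as relative viability. That measure is the nuclei count in treated wells divided by the count in vehicle wells. Counts were taken on 4× images of lung cancer cell lines in 1536-well plates, 5 days after pin-tool dosing the day after seeding with one drug alone or a fixed anchor-drug dose plus five library-drug doses (not always all listed) in √10 steps.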

[2] = compound: CN(C)CC1=CC(=CC=C1)N=C(C2=CC=CC=C2)C3=C(NC4=C3C=CC(=C4)C(=O)N(C)C)O + NC(=O)Nc1cc(-c2cccc(F)c2)sc1C(=O)N[C@H]1CCCNC1 [AZD7762] (partner 0.2 µM)
Summary of the method: as §1

[3] = compound: CN(C)CC1=CC(=CC=C1)N=C(C2=CC=CC=C2)C3=C(NC4=C3C=CC(=C4)C(=O)N(C)C)O + CS(=O)(=O)CCNCc1ccc(-c2ccc3ncnc(Nc4ccc(OCc5cccc(F)c5)c(Cl)c4)c3c2)o1 [Lapatinib] (partner 2 µM)
Summary of the method: as §1

[4] = compound: CN(C)CC1=CC(=CC=C1)N=C(C2=CC=CC=C2)C3=C(NC4=C3C=CC(=C4)C(=O)N(C)C)O + CC(C)C[C@H](NC(=O)[C@H](Cc1ccccc1)NC(=O)c1cnccn1)B(O)O [Bortezomib] (partner 0.002 µM)
Summary of the method: as §1

Row | Cell Line | relative viability ([1]; first compound 0.08 µM) | relative viability ([1]; first compound 0.253 µM) | relative viability ([1]; first compound 0.8 µM) | relative viability ([1]; first compound 2.53 µM) | relative viability ([1]; first compound 8 µM) | relative viability ([2]; first compound 0.08 µM) | relative viability ([2]; first compound 0.253 µM) | relative viability ([2]; first compound 0.8 µM) | relative viability ([2]; first compound 2.53 µM) | relative viability ([2]; first compound 8 µM) | relative viability ([3]; first compound 0.08 µM) | relative viability ([3]; first compound 0.253 µM) | relative viability ([3]; first compound 0.8 µM) | relative viability ([3]; first compound 2.53 µM) | relative viability ([3]; first compound 8 µM) | relative viability ([4]; first compound 0.08 µM) | relative viability ([4]; first compound 0.253 µM) | relative viability ([4]; first compound 0.8 µM) | relative viability ([4]; first compound 2.53 µM) | relative viability ([4]; first compound 8 µM)
1 | NCI-H1355 | 0.376 | 0.359 | 0.331 | 0.342 | 0.365 | 0.869 | 0.665 | 0.597 | 0.541 | 0.641 | 1.08 | 1.02 | 0.955 | 0.948 | 0.885 | 1.24 | 1.26 | 1.11 | 1.28 | 1.08
2 | NCI-H1437 | 0.559 | 0.609 | 0.576 | 0.577 | 0.685 | 1.19 | 1.16 | 1.16 | 1.03 | 1.12 | 0.839 | 0.772 | 0.978 | 0.775 | 0.835 | 0.462 | 0.63 | 0.615 | 0.482 | 0.56
3 | NCI-H1651 | 0.665 | 0.622 | 0.616 | 0.423 | 0.643 | 0.483 | 0.474 | 0.414 | 0.435 | 0.397 | 0.76 | 0.762 | 0.77 | 0.599 | 0.796 | 0.959 | 0.984 | 0.957 | 0.794 | 0.932
4 | NCI-H1666 | 0.694 | 0.715 | 0.68 | 0.769 | 0.744 | 0.908 | 0.857 | 0.847 | 0.764 | 0.852 | 0.868 | 0.616 | 0.887 | 0.668 | 0.774 | 0.865 | 0.945 | 0.989 | 0.976 | 0.816
5 | NCI-H1734 | 0.526 | 0.491 | 0.455 | 0.564 | 0.493 | 0.644 | 0.532 | 0.506 | 0.56 | 0.526 | 1 | 1.08 | 1.02 | 1.02 | 0.881 | 0.954 | 0.868 | 0.92 | 0.815 | 0.78
6 | NCI-H1755 | 0.674 | 0.706 | 0.63 | 0.689 | 0.719 | 0.374 | 0.383 | 0.481 | 0.452 | 0.411 | 1.09 | 0.98 | 1.02 | 0.935 | 1.07 | 0.888 | 0.932 | 0.93 | 0.817 | 0.972
7 | NCI-H1792 | 0.506 | 0.594 | 0.585 | 0.484 | 0.602 | 0.639 | 0.658 | 0.643 | 0.506 | 0.71 | 0.866 | 0.896 | 0.873 | 0.818 | 0.945 | 0.641 | 0.911 | 0.906 | 0.933 | 0.911
8 | NCI-H1915 | 0.251 | 0.274 | 0.271 | 0.255 | 0.247 | 0.704 | 0.729 | 0.756 | 0.699 | 0.578 | 0.957 | 0.955 | 1.05 | 0.971 | 0.956 | 0.976 | 1.02 | 0.985 | 0.923 | 0.956
